The results in this text go back to patent US9686985B2, “Fungicide N-cycloalkyl-N-bicyclicmethylene-carboxamide derivatives” (BAYER INTELLECTUAL PROPERTY GMBH, priority 2012, dated 2017).

One series has as its system Pyrenophora teres. Kind of series: Example N: in vivo preventive test on Pyrenophora teres (barley). Particulars: table N; 500 ppm; barley plants; grading 14 days after contamination. An outline of the steps: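 Barley (cv. Plaisant) at 1-leaf stage was sprayed with compound, then inoculated 24 h later with P. teres spores (12 000/mL). Plants were held 48 h at 20 °C, 100% RH, then 12 days at 20 °C, 70-80% RH; % efficacy versus solvent-treated controls was graded 14 days post-inoculation.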

Another series relates to Alternaria brassicae. As to the kind of experiment: Example D: in vivo preventive test on Alternaria brassicae (leaf spot on radish). Particulars: table D; 500 ppm; radish plants; grading 6 days after contamination. The method, then: Example D: In Vivo Preventive Test on Alternaria brassicae (Leaf Spot on Radish) […] Radish plants (“Pernod Clair” variety), sown in starter cups on a 50/50 peat soil pozzolana substrate and grown at 17° C., are treated at the cotyledon stage by spraying with the active ingredient prepared as described above. Plants, used as controls, are treated with the mixture of acetone/tween/DMSO/water not containing the active material. After 24 hours, the plants are contaminated by spraying the cotyledons with an aqueous suspension of Alternaria brassicae spores (50 000 spores per mL). The spores are collected from a 15-day-old culture. The contaminated radish plants are incubated at 20° C. and at 100% relative humidity. Grading (% of efficacy) is carried out 6 days after the contamination, in comparison with the control plants.

The test system of a further series is Puccinia recondita. As to the kind of experiment: Example R: in vivo preventive test on Puccinia recondita (brown rust on wheat). Particulars: table R; 500 ppm; wheat plants; grading 12 days after contamination. The method, then: Example R: In Vivo Preventive Test on Puccinia recondita (Brown Rust on Wheat) […] Wheat plants (“Scipion” variety), sown in starter cups on a 50/50 peat soil pozzolana substrate and grown at 22° C., are treated at the 1 leaf stage (10 cm height) by spraying with the active ingredient prepared as described above. Plants, used as controls, are treated with the mixture of acetone/tween/DMSO/water not containing the active material. After 24 hours, the plants are contaminated by spraying the leaves with an aqueous suspension of Puccinia recondita spores (100 000 spores per mL). The spores are collected from an infected plant and are suspended in water containing 2.5 mL/L of Tween 80 at 10%. The contaminated wheat plants are incubated for 24 hours at 20° C. and at 100% relative humidity, and then for 10 days at 20° C. and at 70-80% relative humidity. Grading (% of efficacy) is carried out 12 days after the contamination, in comparison with the control plants.

The subject of a further series is Pyricularia oryzae. In kind it is in vivo. Particulars: table Q; 500 ppm; rice plants; grading 6 days after contamination.
Another series relates to Sphaerotheca fuliginea. Kind of series: Example B: in vivo preventive test on Sphaerotheca fuliginea (powdery mildew on cucurbits). Particulars: table B; 500 ppm; gherkin plants; grading 12 days after contamination. The protocol:
Example B: In Vivo Preventive Test on Sphaerotheca fuliginea (Powdery Mildew on Cucurbits) […] Gherkin plants (“Vert petit de Paris” variety), sown in starter cups on a 50/50 peat soil-pozzolana substrate and grown at 24° C., are treated at the Z11 cotyledon stage by spraying with the active ingredient prepared as described above. Plants, used as controls, are treated with the mixture of acetone/tween/DMSO/water not containing the active material. After 24 hours, the plants are contaminated by spraying the cotyledons with an aqueous suspension of Sphaerotheca fuliginea spores (100 000 spores per mL). The spores are collected from infected plants. The contaminated gherkin plants are incubated at about 20° C. and at 70-80% relative humidity. Grading (% of efficacy) is carried out 12 days after the contamination, in comparison with the control plants.

The subject of another series is Uromyces appendiculatus. Kind of series: Example G: in vivo preventive test on Uromyces appendiculatus (bean rust). Particulars: bean plants. The method in brief: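 Bean plants ("Saxa") at the 2-leaf stage, grown at 24° C., sprayed preventively with active ingredient, then inoculated 24 h later with U. appendiculatus spores (150 000 spores per mL). Incubated 24 h at 20° C./100% RH, then 10 days at 20° C./70-80% RH; % efficacy graded 11 days after contamination versus solvent-treated controls.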

The next series relates to Septoria tritici. Kind of series: Example L: in vivo preventive test on Septoria tritici (wheat). Particulars: table L; 500 ppm; wheat plants; grading 24 days after contamination. The method, then:
Example L: In Vivo Preventive Test on Septoria tritici (Wheat) […] Wheat plants (“Scipion” variety), sown in starter cups on a 50/50 peat soil pozzolana substrate and grown at 22° C., are treated at the 1 leaf stage (10 cm height) by spraying with the active ingredient prepared as described above. Plants, used as controls, are treated with the mixture of acetone/tween/DMSO/water not containing the active material. After 24 hours, the plants are contaminated by spraying the leaves with an aqueous suspension of cryopreserved Septoria tritici spores (500 000 spores per mL). The contaminated wheat plants are incubated for 72 hours at 18° C. and at 100% relative humidity, and then for 21 days at 90% relative humidity. Grading (% of efficacy) is carried out 24 days after the contamination, in comparison with the control plants.

Series [1] can be described thus: log P by HPLC on reversed-phase column (EEC Directive 79/831 Annex V.A8). The format is physicochemical. Particulars: Table 1; HPLC C18, 40° C., 0.1% aqueous formic acid and acetonitrile gradient. An outline of the steps:
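Column at 40° C; mobile phases 0.1% aqueous formic acid and acetonitrile, linear gradient 10% to 90% acetonitrile. Calibrated with unbranched alkan-2-ones (3 to 16 carbons) of known log P; values from retention times by linear interpolation between two successive alkanones.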

A further series concerns Botrytis cinerea. Kind of series: Example S: in vivo preventive test on Botrytis cinerea (grey mould). Particulars: table S; 500 ppm; gherkin plants; grading 4 to 5 days after contamination. The protocol: Example S: In Vivo Preventive Test on Botrytis cinerea (Grey Mould) […] Gherkin plants (“Vert petit de Paris” variety), sown in starter cups on a 50/50 peat soil pozzolana substrate and grown at 24° C., are treated at the Z11 cotyledon stage by spraying with the active ingredient prepared as described above. Plants, used as controls, are treated with the mixture of acetone/tween/DMSO/water not containing the active material. After 24 hours, the plants are contaminated by spraying the cotyledons with an aqueous suspension of cryopreserved Botrytis cinerea spores (50 000 spores per mL). The spores are suspended in a nutrient solution composed of 10 g/L of PDB, 50 g/L of D-Fructose, 2 g/L of NH4NO3 and 1 g/L of KH2PO4. The contaminated gherkin plants are incubated at 17° C. and at 90% relative humidity. Grading (% of efficacy) is carried out 4 to 5 days after the contamination, in comparison with the control plants.

A further series has as its system Alternaria solani. As to the kind of experiment: Example C: in vivo preventive test on Alternaria solani (tomato). Particulars: table C2, dose 100 ppm, comparison with WO-2010/086311 compound. The method, then: Example C: In Vivo Preventive Test on Alternaria solani (Tomato) [table] To produce a suitable preparation of active compound, 1 part by weight of active compound is mixed with the stated amounts of solvent and emulsifier, and the concentrate is diluted with water to the desired concentration. To test for preventive activity, young plants are sprayed with the preparation of active compound at the stated rate of application. One day after this treatment, the plants are inoculated with an aqueous spore suspension of Alternaria solani. The plants remain for one day in an incubation cabinet at approximately 22° C. and a relative atmospheric humidity of 100%. Then the plants are placed in an incubation cabinet at approximately 20° C. and a relative atmospheric humidity of 96%.

Where [2] appears, read: table G1, 500 ppm, grading 11 days after contamination.

Regarding `Cc1cccc2c1CCC2CN(C(=O)c1c(C(F)F)nn(C)c1F)C1CC1` (stereo not shown) [I.3], the Efficacy was found to be 100% with Pyrenophora teres; 97% in the series on Alternaria brassicae; 94% in the series with Puccinia recondita; 97% in the series on Pyricularia oryzae; 100% in the series with Sphaerotheca fuliginea; 100% in the series on Uromyces appendiculatus (setting [2]). The Efficacy with Uromyces appendiculatus (table G2, dose 100 ppm) was 88%; in the series on Uromyces appendiculatus (table G2, dose 500 ppm), 100%; in the series with Septoria tritici, 100%. This molecule displayed a log partition coefficient (logP) in series [1] of 3.71.

In the case of `Cn1nc(C(F)F)c(C(=O)N(CC2CCc3cccc(Cl)c32)C2CC2)c1F` (stereo not shown) [I.14], the Efficacy with Pyrenophora teres is listed as 93%; in the series on Alternaria brassicae it was 100%; in the series on Puccinia recondita, 81%; in the series with Pyricularia oryzae it was 75%; with Sphaerotheca fuliginea, 100%; in the series on Uromyces appendiculatus (setting [2]) it was 100%. For the same molecule, the Efficacy in the series on Uromyces appendiculatus (table G2, dose 100 ppm) came out at 50%; with Uromyces appendiculatus (table G2, dose 500 ppm) it was 100%; in the series with Septoria tritici, 97%. Besides, in series [1], the logP turned out to be 3.80.

For the molecule `Cn1nc(C(F)F)c(C(=O)N(CC2CCc3cccc(Br)c32)C2CC2)c1F` (stereo not shown) [I.21], the Efficacy in the series with Pyrenophora teres was found to be 79%; in the series with Alternaria brassicae, 100%; in the series on Puccinia recondita, 88%; in the series with Pyricularia oryzae, 83%; in the series on Sphaerotheca fuliginea, 100%; in the series with Uromyces appendiculatus (setting [2]) it was 98%. Also, in the series with Septoria tritici, the Efficacy was determined as 93%. The molecule also displayed a logP in series [1] of 3.92.

Turning to `Cn1nc(C(F)F)c(C(=O)N(CC2CCOc3ccccc32)C2CC2)c1F` (stereo not shown) [I.31], the Efficacy in the series with Pyrenophora teres stood at 100%; with Alternaria brassicae it was 100%; in the series on Puccinia recondita, 83%; in the series with Botrytis cinerea it was 100%; in the series on Sphaerotheca fuliginea, 100%; with Uromyces appendiculatus (setting [2]), 94%. This molecule showed an Efficacy in the series on Septoria tritici of 100%. The same molecule returned a logP in series [1] of 3.00.

As for `Cc1nn(C)c(F)c1C(=O)N(C1CC1)C(C)C1CCCc2ccccc21` (stereo not shown) [1.2 from WO-2010/086311, N-cyclopropyl-5-fluoro-1,3-dimethyl-N-[1-(1,2,3,4-tetrahydronaphthalen-1-yl)ethyl]-1H-pyrazole-4-carboxamide, reference compound], the Efficacy result in the series with Alternaria solani is on record as “no protection”; in the series on Alternaria solani (listed as I.2 from WO-2010/086311) it was 0%.

Take `Cn1nc(C(F)F)c(C(=O)N(CC2CCCCc3ccccc32)C2CC2)c1F` (stereo not shown) [I.30]: the Efficacy was 100% in the series on Pyrenophora teres; 100% in the series with Alternaria brassicae; 94% in the series with Puccinia recondita; 100% in the series on Botrytis cinerea; 100% in the series with Sphaerotheca fuliginea; 100% in the series with Uromyces appendiculatus (setting [2]). The molecule further had an Efficacy in the series with Septoria tritici of 100%. In series [1], this molecule returned a logP of 3.90.

As to `Cn1nc(C(F)F)c(C(=O)N(CC2CCc3c(F)cccc32)C2CC2)c1Cl` (stereo not shown) [I.8], the Efficacy with Pyrenophora teres came out at 86%; in the series on Puccinia recondita, 75%; with Pyricularia oryzae, 83%; in the series on Sphaerotheca fuliginea, 100%; in the series on Septoria tritici it was 71%. In [1], the logP was found to be 3.55.
